Read-outs that look alike come from different tables or passages of the source. Each block holds one molecule with its values, some of them ahead of it. Where no end group is shown, it is not given here.
Columns and labels:
[1] = biological target: T1, sweet corn SGP (Zea mays, UniProt P80607); assay: Self-glucosylating protein (SGP) assay, incorporation of 14C-glucose from UDP-[14C]glucose into TCA-precipitable protein; assay type: biochemical; conditions: for inhibitory effect on activity of sweet corn SGP: result in words; for stimulating effect of divalent cation on sweet corn SGP activity: concentration dependence measured, manganese at 5 mM
T1 construct: not recombinant
T1 sequence (P80607 whole entry): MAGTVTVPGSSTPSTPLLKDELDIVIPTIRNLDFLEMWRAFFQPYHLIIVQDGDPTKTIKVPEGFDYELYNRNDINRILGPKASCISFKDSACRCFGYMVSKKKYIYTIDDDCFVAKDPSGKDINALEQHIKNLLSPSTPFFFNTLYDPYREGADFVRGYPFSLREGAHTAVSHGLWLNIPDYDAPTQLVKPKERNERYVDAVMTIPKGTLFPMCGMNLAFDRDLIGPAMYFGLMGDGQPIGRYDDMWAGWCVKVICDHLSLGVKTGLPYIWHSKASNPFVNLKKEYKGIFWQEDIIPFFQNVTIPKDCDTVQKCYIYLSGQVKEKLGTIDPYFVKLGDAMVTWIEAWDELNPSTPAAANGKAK
Procedure: The reaction was stopped by the addition of 1 ml of 10% TCA (trichloroacetic acid). After standing for 10 minutes the sample was passed through a nitrocellulose filter, type HA 0.45 uM, washed with about 3 ml 10% TCA and approximately 10 ml of water and the filter dried under an infrared lamp. Following this, the filter was placed in 4 ml of scintillation liquid (Ecolume) and measured for ^14 C radioactivity in a Searle Delta 300 6890 liquid scintillation counter.
The radioactivity measured on the filter represents ^14 C-glucose that was incorporated into TCA-precipitable material (assuming no conversion to the glucose molecule into any other compound). […] Endogenously glucosylated SGP would not be detectable and could not be quantitated by this method.

[2] = biological target: T2, Rabbit muscle SGP (Oryctolagus cuniculus, UniProt P13280); assay: Self-glucosylation activity of rabbit muscle SGP (glycogenin); assay type: biochemical; conditions: for inhibition of the self-glucosylating protein in rabbit muscle: act as alternative substrates
T2 construct: from tissue; host or cells: rabbit muscle
T2 sequence (P13280 1-333): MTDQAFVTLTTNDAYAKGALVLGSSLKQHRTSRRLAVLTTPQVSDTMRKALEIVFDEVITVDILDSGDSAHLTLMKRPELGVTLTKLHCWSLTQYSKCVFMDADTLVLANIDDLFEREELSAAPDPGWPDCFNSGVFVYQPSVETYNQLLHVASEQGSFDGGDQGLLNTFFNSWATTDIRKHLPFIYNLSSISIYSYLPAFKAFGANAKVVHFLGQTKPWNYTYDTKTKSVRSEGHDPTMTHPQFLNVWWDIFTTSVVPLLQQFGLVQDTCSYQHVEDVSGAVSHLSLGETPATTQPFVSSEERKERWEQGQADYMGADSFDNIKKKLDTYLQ

[3] = system: proteins of molecular weight higher than SGP; conditions: 16 fold purified extract, 24 hr
[4] = biological target: amylogenin (self-glucosylating protein, SGP) from maize (Zea mays) endosperm (Zea mays) (UniProt P80607)

Molecule: Nc1ncnc2c1ncn2[C@@H]1O[C@H](COP(=O)(O)OP(=O)(O)OP(=O)(O)O)[C@@H](O)[C@H]1O [ATP, adenosine triphosphate]
IC50 [1]: 0.1 mM | inhibitory effect on activity of sweet corn SGP [1]: potent inhibitor | potency as inhibitor of sweet corn SGP relative to rabbit muscle SGP ([1]; sweet corn SGP vs rabbit muscle SGP): 30 fold | IC50 ([2]; read-out: concentration giving 50% inhibition of rabbit muscle SGP): 3.5 mM

Molecule: [Ca+2] [Calcium]
stimulating effect of divalent cation on sweet corn SGP activity [1]: no stimulatory effect

Molecule: O=C(O)CN(CCN(CC(=O)O)CC(=O)O)CC(=O)O [EDTA, ethylene diamine tetra acetate]
sweet corn SGP activity after treatment with chelator ([1]; treated with EDTA): looses all its activity

stimulating effect of divalent cation on sweet corn SGP activity [1]: most potent stimulating effect | stimulation of muscle SGP by divalent cation ([2]; result in words): stimulated
Molecule: [Cl][Mn][Cl] [Manganese, MnCl2]
effect on radioglucosylation of higher molecular weight proteins ([3]; 1 mM): proceeds | effect on radioglucosylation of higher molecular weight proteins ([3]; 5 mM): inhibited

Molecule: N=C(N)NCCC[C@H](N)C(=O)O [arginine]
inhibitory effect on activity of sweet corn SGP [1]: No effect

maximum stimulating effect on sweet corn SGP ([1]; at 10 mM concentration): about 50%
Molecule: [Mg+2] [magnesium]

Molecule: O=[N+]([O-])c1ccc(O)cc1 [p-Nitrophenol]
inhibitory effect on activity of sweet corn SGP [1]: no effect

inhibition of the self-glucosylating protein in rabbit muscle ([2]; result in words): inhibited
Molecule: O=[N+]([O-])c1ccc(OC2O[C@H](CO)[C@@H](O[C@H]3O[C@H](CO)[C@@H](O)[C@H](O)[C@H]3O)[C@H](O)[C@H]2O)cc1 (some centres unmarked) [p-nitro-phenylmaltose]

inhibition of the self-glucosylating protein in rabbit muscle ([2]; result in words): inhibited
Molecule: O=[N+]([O-])c1ccc(OC2O[C@H](CO)[C@@H](O[C@H]3O[C@H](CO)[C@@H](O[C@H]4O[C@H](CO)[C@@H](O[C@H]5O[C@H](CO)[C@@H](O)[C@H](O)[C@H]5O)[C@H](O)[C@H]4O)[C@H](O)[C@H]3O)[C@H](O)[C@H]2O)cc1 (some centres unmarked) [p-nitrophenyl- maltotetrose]

inhibitory effect on activity of sweet corn SGP [1]: no effect
Molecule: O=[N+]([O-])c1ccc(O[C@H]2O[C@H](CO)[C@@H](O)[C@H](O)[C@H]2O)cc1 [p-nitrophenyl-alpha-glucoside]

inhibitory effect on activity of sweet corn SGP [1]: no effect
Molecule: O=[N+]([O-])c1ccc(O[C@@H]2O[C@H](CO)[C@@H](O)[C@H](O)[C@H]2O)cc1 [p-nitrophenyl-beta-glucoside]

inhibition of the self-glucosylating protein in rabbit muscle ([2]; result in words): inhibited
Molecule: O=[N+]([O-])c1ccc(OC2O[C@H](CO)[C@@H](O[C@H]3O[C@H](CO)[C@@H](O[C@H]4O[C@H](CO)[C@@H](O)[C@H](O)[C@H]4O)[C@H](O)[C@H]3O)[C@H](O)[C@H]2O)cc1 (some centres unmarked) [p-nitrophenylmaltotriose]

proteolysis (trypsinolysis) of SGP [4]: 70%
Molecule: TPCK-trypsin (enzyme)

inhibitory effect on activity of sweet corn SGP [1]: No effect
Molecule: synthetic peptide comprising the same amino acid sequence as the glucosylated tryptic peptide T2: synthetic peptide with the sequence of tryptic peptide T2 (SEQ ID NO: 2, E G A N F V X G Y P F S L R) (EGANFVXGYPFSLR; not fully specified; X: residue not identified in the source)

From US5859333A, “Plants and processes for obtaining them” (Zeneca Limited, priority 1992, dated 1999)
